Data on one compound can be found in paper PMC10447267, “Assessment of the potential of the MET inhibitor tepotinib to affect the pharmacokinetics of CYP3A4 and P-gp substrates” (Investigational New Drugs, 2023).

As usually defined, the IC50 is the concentration that inhibits the measured activity by half. For orientation: inhibition means the percentage by which the read-out fell short of the control. What is called Ki is a measure of affinity in units of concentration, obtained from inhibition or displacement.

Each structure is given as a SMILES string. Where two headings read alike, the source gives them in different places.

Common to all, as to assay type: in vitro ADME
For one data set, the target named is T1, CYP2C19 (Homo sapiens, UniProt P33261).
T1 construct: pooled mixed-gender human liver microsomes; from tissue; host or cells: pooled mixed-gender human liver microsomes
T1 sequence (P33261 whole entry): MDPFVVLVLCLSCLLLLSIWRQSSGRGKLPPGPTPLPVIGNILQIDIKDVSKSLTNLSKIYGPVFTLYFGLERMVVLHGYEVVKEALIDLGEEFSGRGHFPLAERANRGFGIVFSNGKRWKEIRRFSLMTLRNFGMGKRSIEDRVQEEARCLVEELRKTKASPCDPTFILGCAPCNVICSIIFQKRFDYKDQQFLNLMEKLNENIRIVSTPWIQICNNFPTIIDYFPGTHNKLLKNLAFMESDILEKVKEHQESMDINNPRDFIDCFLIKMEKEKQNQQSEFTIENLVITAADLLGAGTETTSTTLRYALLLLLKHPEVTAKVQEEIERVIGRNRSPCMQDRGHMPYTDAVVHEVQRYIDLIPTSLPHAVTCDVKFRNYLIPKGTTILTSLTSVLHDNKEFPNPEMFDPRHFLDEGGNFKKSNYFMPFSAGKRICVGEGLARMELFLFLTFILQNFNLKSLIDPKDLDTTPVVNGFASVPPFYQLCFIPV
Nature of the data set: CYP2C19 inhibition in pooled human liver microsomes. Conditions: for inhibition at 49.5 µM: both sexes, human, pooled human liver microsomes, probe S-mephenytoin (4-hydroxylation). The method, then:
(§1) The potential of tepotinib and MSC2571109A to inhibit CYP450 enzymes CYP1A2, 2A6, 2B6, 2C8, 2C9, 2C19, 2D6, 2E1, and 3A4/5 in vitro was evaluated using CYP-catalyzed reactions in pooled mixed-gender human liver microsomes using specific substrates and liquid chromatography/tandem mass spectrometry (LC–MS/MS) readouts. […] Testosterone 6β-hydroxylation was assessed in the MSC2571109A study. Assessments of mechanism-based inhibition of the above listed CYP450 enzymes were conducted after pre-incubation of the microsomes with tepotinib or MSC2571109A. A brief summary of the incubation methods, including details of substrates used for the other CYP enzymes (which are not pertinent to this article) are presented in Online Resource 1. The LC–MS/MS-based methods used were consistent with those previously described in the literature.

The target in another data set is T2, CYP2C8 (Homo sapiens, UniProt P10632).
T2 sequence (P10632 1-490): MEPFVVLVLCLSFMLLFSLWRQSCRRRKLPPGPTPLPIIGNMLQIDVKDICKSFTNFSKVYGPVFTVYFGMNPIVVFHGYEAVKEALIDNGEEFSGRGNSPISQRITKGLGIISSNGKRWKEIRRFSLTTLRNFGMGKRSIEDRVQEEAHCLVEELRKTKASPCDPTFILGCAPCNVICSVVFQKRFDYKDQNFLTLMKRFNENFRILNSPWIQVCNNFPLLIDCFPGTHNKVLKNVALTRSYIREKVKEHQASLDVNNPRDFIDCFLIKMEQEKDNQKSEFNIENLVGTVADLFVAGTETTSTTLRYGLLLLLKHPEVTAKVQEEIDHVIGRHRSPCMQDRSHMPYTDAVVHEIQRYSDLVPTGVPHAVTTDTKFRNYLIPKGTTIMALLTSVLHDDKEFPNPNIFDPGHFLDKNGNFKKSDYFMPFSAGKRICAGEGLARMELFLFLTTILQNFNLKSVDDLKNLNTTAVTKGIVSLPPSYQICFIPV
Nature of the data set: CYP2C8 inhibition in pooled human liver microsomes. Conditions: Amodiaquine N-dealkylation. The method, then:
as §1
For orientation: Liver microsomes are a subcellular fraction often used to study metabolism.

Another data set relates to CYP3A4 mRNA. The experiment in a line: CYP3A4 mRNA induction in human hepatocyte cultures. The method, then:
In vitro studies in primary human hepatocyte cultures were conducted to assess the potential of tepotinib to induce human CYP1A1/2, 2B6 and 3A4/5 activity, the latter based on testosterone 6β-hydroxylation reactions (Online Resource 2). […] The studies included positive (rifampin) and vehicle (DMSO) controls. A negative control (flumazenil) was also included in the mRNA studies. The study designs, test systems and selection of prototypical inducers used in these studies were consistent with PhRMA, FDA and EMA guidelines.

Regarding `CN1CCC(COc2cnc(-c3cccc(Cn4nc(-c5cccc(C#N)c5)ccc4=O)c3)nc2)CC1` [tepotinib], the “Potential for time-dependent inhibition” value on CYP2C19 (S-Mephenytoin 4-hydroxylation) and on CYP2C8 was “Little or No” in each case. Also, the 50% inhibitory concentration (IC50) was 29 µM on CYP2C19 (S-Mephenytoin 4-hydroxylation, 30-min preincubation, read-out: Time-dependent inhibition IC50); 30 µM on CYP2C19 (human liver microsomes, S-Mephenytoin 4-hydroxylation, zero-minute preincubation, read-out: Direct inhibition IC50); 13 µM at CYP2C8 (30-min preincubation, read-out: Time-dependent inhibition IC50); 16 µM on CYP2C8 (human liver microsomes, zero-minute preincubation, read-out: Direct inhibition IC50). Also, the inhibition at 49.5 µM on CYP2C19 (S-Mephenytoin 4-hydroxylation, 30-min preincubation, read-out: Time-dependent inhibition, maximum inhibition at 49.5 µM) worked out at 65%; at CYP2C19 (S-Mephenytoin 4-hydroxylation, zero-minute preincubation, read-out: Direct inhibition, maximum inhibition at 49.5 µM), 64%; at CYP2C8 (both sexes, human, pooled human liver microsomes, probe amodiaquine, zero-minute preincubation, 49.5 µM, read-out: Direct inhibition, maximum inhibition at 49.5 µM), 86%. In addition, the Ki at CYP2C19 (human liver microsomes, read-out: Ki, CYP2C19-catalyzed probe substrate reaction) was at least 11 µM; on CYP2C8 (human liver microsomes, read-out: Direct inhibition Ki) it was 11 µM. Moreover, on CYP2C8 (direct inhibition), the Type of inhibition entry is “Mixed”. Further, the “Increase in CYP3A4 mRNA” value with CYP3A4 mRNA (human hepatocyte cultures, maximum (up to), concentration-dependent) was “up to 7 fold”. Further, the “Effect on CYP3A4 mRNA (in words)” value in the data set with CYP3A4 mRNA (in vitro) is listed as “increased CYP3A4 mRNA”.
